Usually inhibition stands for the change of the read-out against control, counted positive when it falls.

What all share (format): cell-based
The target of test [1] is T1, human TRPM5 ion channel (Homo sapiens, UniProt Q9NZQ8).
T1 construct: expressed in transfected cells
T1 sequence (Q9NZQ8 1-1165): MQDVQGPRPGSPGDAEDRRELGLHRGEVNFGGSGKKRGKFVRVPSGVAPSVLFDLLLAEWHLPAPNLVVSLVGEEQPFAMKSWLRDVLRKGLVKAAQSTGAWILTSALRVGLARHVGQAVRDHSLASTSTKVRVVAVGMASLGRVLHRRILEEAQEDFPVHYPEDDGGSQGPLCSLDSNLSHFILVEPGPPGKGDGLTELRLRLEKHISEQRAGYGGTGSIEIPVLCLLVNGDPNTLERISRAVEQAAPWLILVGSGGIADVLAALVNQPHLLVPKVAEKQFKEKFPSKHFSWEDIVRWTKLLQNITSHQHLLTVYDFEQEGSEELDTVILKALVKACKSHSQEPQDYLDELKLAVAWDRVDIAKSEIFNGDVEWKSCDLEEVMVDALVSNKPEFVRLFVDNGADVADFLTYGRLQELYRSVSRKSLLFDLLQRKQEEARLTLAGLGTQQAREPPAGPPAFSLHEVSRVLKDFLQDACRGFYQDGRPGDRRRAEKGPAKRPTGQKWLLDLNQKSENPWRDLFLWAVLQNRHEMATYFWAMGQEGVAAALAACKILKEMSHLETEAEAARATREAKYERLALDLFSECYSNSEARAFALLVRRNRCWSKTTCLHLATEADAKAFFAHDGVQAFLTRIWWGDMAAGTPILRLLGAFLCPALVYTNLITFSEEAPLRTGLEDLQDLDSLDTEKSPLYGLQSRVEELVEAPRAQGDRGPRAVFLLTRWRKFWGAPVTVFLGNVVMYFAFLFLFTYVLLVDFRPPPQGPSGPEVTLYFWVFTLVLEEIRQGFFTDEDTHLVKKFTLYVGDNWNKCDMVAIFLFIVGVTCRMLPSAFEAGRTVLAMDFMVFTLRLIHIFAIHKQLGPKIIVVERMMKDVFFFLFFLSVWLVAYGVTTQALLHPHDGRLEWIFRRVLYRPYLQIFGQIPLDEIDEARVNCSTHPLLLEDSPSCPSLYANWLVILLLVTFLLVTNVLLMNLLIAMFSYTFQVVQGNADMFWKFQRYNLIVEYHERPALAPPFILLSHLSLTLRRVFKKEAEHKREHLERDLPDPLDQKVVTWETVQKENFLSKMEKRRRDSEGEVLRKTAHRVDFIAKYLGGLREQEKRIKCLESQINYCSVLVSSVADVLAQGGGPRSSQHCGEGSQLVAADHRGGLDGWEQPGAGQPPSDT
The test can be described thus: TRPM5 FLIPR membrane potential screening assay (ATP stimulation). The conditions noted are these: 10 μM compound; HEK293 cells stably expressing human TRPM5; 3 μM ATP stimulation; versus negative control wells; read-out: TRPM5 Activity (percent inhibition). The method, then: The activity of human TRPM5 ion channel was measured in live cells on a fluorescent imaging plate reader (FLIPR). The basis of the assay (shown in FIG. 1) is the calcium-dependent activation of the ion channel which occurs via by activation of a G-protein coupled receptor (GPCR). GPCR activation by an appropriate agonist causes a transient increase in […] Ca^2+ ion concentration which in turn causes the ion channel to open, letting in Na^+ ions. This influx causes a change in the membrane potential of the cell which can be monitored as a change in the fluorescent signal from voltage-dependent (membrane potential) fluorescent dyes.
For the screening assay, the human TRPM5 gene was cloned, put into HEK293 cells, and a stable, high expression clone was used for screening. Cells were grown in standard media at 37° C. The day before screening, the cells were removed from flasks and added to 384 well clear bottom plates (8K cells in 20 μL/well). On the assay day, 20 μL of membrane potential dye (Part No. R8123, Molecular Devices Corp.) was added to the cells and dye was allowed to be taken up, i.e., load, into the cells for 1 hr at 37° C. […] The assay was started by addition of 10 μL of solution from the compound plate into the cell plate. During this process, continuous fluorescent recordings were made simultaneously for all wells. After addition of the compound solution, the tips were automatically washed and a stimulation solution of 3 μM ATP (an agonist for an endogenous purinurgic GPCR, was added to all wells of the cell plate. The height of the response was calculated and percent inhibition values, versus negative control wells, was calculated for the test samples.
(§1) Unless otherwise indicated, the data in the table below were determined using the three assays described above, providing percent inhibition data at 10 μM.

For test [2], the system named is membrane potential response (non-specific ion channel block). The test can be described thus: KCl counterscreen (membrane potential dye, 10 mM KCl stimulation). The conditions noted are these: Homo sapiens; 10 μM compound; same HEK293 TRPM5 cells; 10 mM KCl instead of ATP; read-out: KC1 Counterscreen (percent inhibition). How it is done:
(§2) Two counterscreen assays were run on separate cell plates utilizing the same cells as described above. In the calcium counterscreen, the cells were loaded with a calcium sensitive dye (Calcium3 Dye, Part no. 8090, Molecular Devices Corp.) and stimulated by ATP to check for compounds that block the GPCR-mediated calcium activation step. In the KCl counterscreen, cells are stimulated with 10 mM KCl instead of ATP to check for compounds that inhibit the membrane potential response by virtue of being non-specific ion channel blockers.
as §1
(The purpose of a counterscreen is to sort out artefacts and off-target activity.)

Test [3] relates to GPCR-mediated calcium activation step. The experiment in a line: Calcium counterscreen (calcium sensitive dye, ATP stimulation). The settings on record: Homo sapiens, 10 μM compound, same HEK293 TRPM5 cells, Calcium3 dye, read-out: Calcium Counterscreen (percent inhibition). How it is done: as §2, §1

Regarding `Cc1ccc(NCC(=O)N/N=C/c2ccc(N3CCOCC3)c([N+](=O)[O-])c2)cc1C` [Example 20, (E)-2-(3,4-Dimethylphenylamino)-N′-(4-morpholino-3-nitrobenzylidene)acetohydrazide], the inhibition at 10 µM is 70% in test [1], 16% in test [2] and -3% in test [3].
`O=C(N/N=C\c1ccc[nH]1)C12CC3CC(CC(C3)C1)C2` [Example 17, (Z)-N′-((1H-Pyrrol-2-yl)methylene)tricyclo [3.3.1^3,7]decane-3-carbohydrazide]: the inhibition at 10 µM was 40% in test [1], 8% in test [2] and -13% in test [3].
The corresponding values for `N#CC(C#N)=NNc1ccc(SC(F)(F)F)cc1` [Example 13, (4-(Trifluoromethylthio)penyl)carbonohydrazonoyldicyanide] are 78%, 65% and 2%.
Turning to `C=CCOc1ccc(/C=N/NC(=O)CSCc2cccc(Br)c2)cc1OC` [Example 9, (E)-N′-(4-(Allyloxy)-3-methoxybenzylidene)-2-(3-bromobenzylthio)acetohydrazide], the inhibition at 10 µM stood at 80% in test [1], 21% in test [2] and 2% in test [3].
The corresponding values for `O=C(O)c1ccccc1N/N=C(\N=N\c1ccccc1)c1ccccc1` [Example 7, 2-((Z)-2-(Phenyl-((E)-phenyldiazenyl) -methylene)hydrazinyl)benzoic acid] are 83%, 81% and -17%.
The corresponding values for `CCN(CC)c1ccc(/C=N/Nc2nc3ccccc3[nH]2)c(O)c1` [Example 22, (E)-2-((2-(1H-Benzo[d]imidazol-2-yl)hydrazono)methyl)-5-(diethylamino)phenol] are 58%, 32% and -23%.
The corresponding values for `O=[N+](O)c1ccc(N2CCCC2)cc1N/N=C1\CN2CCC1CC2` [Example 21] are 51%, 42% and 6%.
For the molecule `COc1ccc(/C=N/NC(=O)C2CC2c2ccccc2)cc1OC` (stereo not drawn) [Example 4, (E)-N′-(3,4-Dimethoxybenzylidene)-2-phenylcyclopropanecarbohydrazide], the inhibition at 10 µM in test [1] is 99%; in test [2] it was -4%; in test [3], -1%.
The corresponding values for `CCCCCCCC(O)CCC(=O)N/N=C/c1ccc(OC)c(OC)c1` (stereo not drawn) [Example 6] are 93%, -15% and 0%.
The corresponding values for `CN1/C(=C\C=N\Nc2ccc([N+](=O)[O-])cc2)C(C)(C)c2ccccc21` [Example 11, (Z)-1,3,3-Trimethyl-2-((E)-2-(2-(4-nitrophenyl)hydrazono)ethylidene)indoline] are 67%, 14% and 23%.
The corresponding values for `C(=N\N(Cc1ccccc1)c1ccccc1)/c1ccncc1` [Example 16, (E)-4-((2-Benzyl-2-phenylhydrazono)methyl)pyridine] are 74%, -2% and -6%.
For `CCCCn1cc(/C=N\Nc2ccccc2C(=O)O)c2ccccc21` [Example 15, (Z)-2-(2-((1-Butyl-1H-indol-3-yl)methylene)hydrazinyl)benzoic acid], the inhibition at 10 µM in test [1] was determined as 74%; in test [2], 43%; in test [3], 4%.
The corresponding values for `CCN(CC)c1ccc(/C=N/NC(=O)C2CC2c2ccccc2)c(O)c1` (stereo not drawn) [Example 12, (E)-N′-(4-(Diethylamino)-2-hydroxybenzylidene) -2-phenylcyclopropanecarbohydrazide] are 48%, -7% and -35%.
The corresponding values for `CN(/N=C/c1ccc(O)cc1O)c1ncc(Cl)cc1C(F)(F)F` [Example 19, (E)-4-((2-(5-Chloro-3-(trifluoromethyl)pyridini-2-yl)-2-2-methylhydrazono)methyl)benzene-1,3-diol] are 65%, 36% and 5%.
As to `CC(C)c1ccc(/C=N/NC(=O)C2C3CCCCC32)cc1` (stereo not drawn) [Example 10, (E)-N′-(4-Isopropylbenzylidene)bicyclo[4.1.0.]heptane-7-carbohydrazide], the inhibition at 10 µM in test [1] is 78%; in test [2], -11%; in test [3], -38%.
Regarding `CCN(CCO)c1ccc(N/N=C2\C(=O)C=Cc3ccccc32)cc1` [Example 18, (Z)-1-(2-(4-(Ethyl-(2-hydroxyethyl)-amino)phenyl)hydrazono)naphthalen-2(1H)-one], the inhibition at 10 µM in test [1] was 87%; in test [2], 33%; in test [3], -9%.
The corresponding values for `COC(=O)c1ccc(/N=N/C(=N\Nc2nc3ccccc3s2)C(C)C)cc1` [Example 1, Methyl 4-((E)-((Z)-1-(2-(benzo[d]thiazol-2-yl)hydrazono) -2-methylpropyl)diazenyl)benzoate] are 60%, 20% and -11%.
The corresponding values for `COc1ccc(/C=N/NC(=O)COc2cccc(C)c2)cc1OC` [Example 8, (E)-N′-(3,4-Dimethoxybenzylidene)-2-(m-tolyloxy)acetohydrazide] are 76%, 7% and -3%.
The corresponding values for `O=C(O)COc1ccc(Br)cc1/C=N/Nc1cccc2cccnc12` [Example 2, (E)-2-(4-Bromo-2-((2-(quinolin-8-yl)hydrazono)methyl)phenoxy)acetic acid] are 87%, 70% and -10%.
As for `COc1ccc(/C=N/NC(=O)CC(CO)C2=CCCCC2)cc1` (stereo not drawn) [Example 5, (E)-3-Cyclohexenyl-4-hydroxy-N′-(4-methoxybenzylidene)butanehydrazide], the inhibition at 10 µM in test [1] is 96%; in test [2], 29%; in test [3], -7%.

The values above are taken from patent US20070207093A1, “Hydrazone derivatives and uses thereof” (Linquagen Corp., priority 2005, published 2007).
